Measured values taken from US5773459A, “Urea- and thiourea-type compounds” (Sugen, Inc., priority 1995, dated 1998).
Like-named read-outs stand apart in the source and are kept apart here.

What was measured:
IGF-1R = molecular target: T1, IGF-1R (Homo sapiens, UniProt P08069); experiment: Cellular IGF-1 Receptor ELISA; format: cell-based
T1 construct: expressed in transfected cells; host or cells: 3T3/IGF-1R
Description: Cellular IGF-1 Receptor ELISA (Version I)
(1). The cell line used in this assay is 3T3/IGF-1R, a cell line which overexpresses IGF-1 Receptor.
(2). 3T3/IGF-1 R is grown in an incubator with 5% CO2 at 37° C. The growth media is DMEM+10% FBS (heat inactivated)+2 mM L-Glutamine.
(3). For ELISA plate coating, the anti-IGF-1 R antibody named 17-69 is used. Antibodies are purified by the Enzymology Lab, SUGEN, Inc.
(10). Insulin-like growth factor-1 from Promega (Cat# G5111).
(2). […] Incubate for 1 day then replace medium to serum-free medium (90/ul) and incubate in 5% CO2 and 37° C. overnight.
2. ELISA Plate Coating and Blocking
(2). Remove the coating solution, and replace with 100 ul Blocking Buffer, and shake for 30 minutes. Remove the blocking buffer and wash the plate just before adding lysate.
(1). The drugs are tested in serum-free condition.
(2). Dilute drug stock (in 100% DMSO) 1:10 with DMEM in 96-well poly-propylene plate, and transfer 10 ul/well of this solution to the cells to achieve final drug dilution 1:100, and final DMSO concentration of 1.0%. Incubate the cells in 5% CO2 at 37° C for 2 hours.
(3). Prepare fresh cell lysis buffer (HNTG HNTG 2 ml EDTA 0.1 ml Na3VO4 0.1 ml Na4P207 0.1 ml H20 7.3 ml HNTG* 10 ml.
(4). After drug incubation for two hours, transfer 10 ul/well of 200 nM IGF-1 Ligand in PBS to the cells (Final Conc=20 nM), and incubate at 5% CO2 at 37° C. for 10 minutes.
(5). Remove media and add 100 ul/well HNTG* and shake for 10 minutes. Look at cells under microscope to see if they are adequately lysed.
(6). Use a 12-channel pipette to scrape the cells from the plate, and homogenize the lysate by repeat aspiration and dispense. Transfer all the lysate to the antibody coated ELISA plate [V.2.(2)], and shake for 1 hour.
(7). Remove the lysate, wash the plate, transfer anti-pTyr (1:3,000 with TBST) 100 ul/well, and shake for 30 minutes.
(7). Remove anti-pTyr, wash the plate, transfer detection antibody (1:3,000 with TBST) 100 ul/well, and shake for 30 minutes.
(8). Remove detection antibody, wash the plate, and transfer fresh ABTS/H2O2 (1.2 ul H2O2 to 10 ml ABTS) 100 ul/well to the plate to start color development.
(9). Measure OD (410 nm) in Dynatec MR5000, which is connected to Ingres.

human EGF receptor = molecular target: T2, human EGF receptor (Homo sapiens, UniProt P00533); experiment: EGFR Whole Cell Kinase Assay (EGFR-3T3 assay); format: cell-based
T2 construct: expressed in transfected cells; host or cells: NIH3T3 clone C7 (EGFR/C7)
Description: Growth assays were carried out using human mammary epithelial SKBR3 (ATCC HTB30) cells (SKBR3 cells over-express HER2), SKOV3 (ATCC HTB77) human ovarian cancer cell line (SKOV3 cells also over-express HER2), A431 cells (A431 cells over-express EGFR) MCF7 human breast carcinoma cells, MCF7 cells overexpressing the HER2 kinase (MCF7-HER2), NIH3T3 cells, and NIH3T3 cells overexpressing the HER2 kinase (3T3-HER2.
EGFR Whole Cell Kinase Assay
EGFR kinase activity (EGFR-3T3 assay) in whole cells was measured as described below:
Coated plates are good for up to 10 days when stored at 4.sunburst.C.
B. On day of use, remove coating buffer and replace with blocking buffer (5% Carnation Instant NonFat Dry Milk in PBS). Incubate the plate, shaking, at room temperature (about 23.sunburst.C to 25.sunburst.C) for 30 minutes. Just prior to use, remove blocking buffer and wash plate 4 times with TBST buffer.
A. EGFR/C7 cell line (Honegger, et al., supra) can be used for this assay.
B. Choose dishes having 80-90% confluence for the experiment.
Trypsinize cells and stop reaction by adding 10% CS DMEM medium. Suspend cells in DMEM medium (10% CS DMEM medium) and centrifuge once at 1000 rpm, and once at room temperature for 5 minutes.
C. Resuspend cells in seeding medium (DMEM, 0.5% bovine serum), and count the cells using trypan blue. Viability above 90% is acceptable. Seed cells in DMEM medium (0.5% bovine serum) at a density of 10,000 cells per well, 100 μl per well, in a 96 well microtiter plate. Incubate seeded cells in 5% CO2 at 37.sunburst.C for about 40 hours.
A. Check seeded cells for contamination using an inverted microscope. Dilute drug stock (10 mg/ml in DMSO) 1:10 in DMEM medium, then transfer 5 μl to a test well for a final drug dilution of 1:200 and a final DMSO concentration of 1%.
Control wells receive DMSO alone. Incubate in 5% CO2 at 37° C. for one hour.
C. Prepare fresh HNTG sufficient for 100 μl per well; and place on ice.
Control wells receive DMEM alone. […]
K. The maximal phosphotyrosine signal is determined by subtracting the value of the negative controls from the positive controls.

[1] = 3T3/IGF-1R cells, IGF-1 stimulated, read-out: ELISA DATA: IGF-1R
[2] = EGFR/C7 NIH3T3 cells, EGF stimulated, read-out: ELISA DATA: EGFR

T2 sequence (P00533 25-1210): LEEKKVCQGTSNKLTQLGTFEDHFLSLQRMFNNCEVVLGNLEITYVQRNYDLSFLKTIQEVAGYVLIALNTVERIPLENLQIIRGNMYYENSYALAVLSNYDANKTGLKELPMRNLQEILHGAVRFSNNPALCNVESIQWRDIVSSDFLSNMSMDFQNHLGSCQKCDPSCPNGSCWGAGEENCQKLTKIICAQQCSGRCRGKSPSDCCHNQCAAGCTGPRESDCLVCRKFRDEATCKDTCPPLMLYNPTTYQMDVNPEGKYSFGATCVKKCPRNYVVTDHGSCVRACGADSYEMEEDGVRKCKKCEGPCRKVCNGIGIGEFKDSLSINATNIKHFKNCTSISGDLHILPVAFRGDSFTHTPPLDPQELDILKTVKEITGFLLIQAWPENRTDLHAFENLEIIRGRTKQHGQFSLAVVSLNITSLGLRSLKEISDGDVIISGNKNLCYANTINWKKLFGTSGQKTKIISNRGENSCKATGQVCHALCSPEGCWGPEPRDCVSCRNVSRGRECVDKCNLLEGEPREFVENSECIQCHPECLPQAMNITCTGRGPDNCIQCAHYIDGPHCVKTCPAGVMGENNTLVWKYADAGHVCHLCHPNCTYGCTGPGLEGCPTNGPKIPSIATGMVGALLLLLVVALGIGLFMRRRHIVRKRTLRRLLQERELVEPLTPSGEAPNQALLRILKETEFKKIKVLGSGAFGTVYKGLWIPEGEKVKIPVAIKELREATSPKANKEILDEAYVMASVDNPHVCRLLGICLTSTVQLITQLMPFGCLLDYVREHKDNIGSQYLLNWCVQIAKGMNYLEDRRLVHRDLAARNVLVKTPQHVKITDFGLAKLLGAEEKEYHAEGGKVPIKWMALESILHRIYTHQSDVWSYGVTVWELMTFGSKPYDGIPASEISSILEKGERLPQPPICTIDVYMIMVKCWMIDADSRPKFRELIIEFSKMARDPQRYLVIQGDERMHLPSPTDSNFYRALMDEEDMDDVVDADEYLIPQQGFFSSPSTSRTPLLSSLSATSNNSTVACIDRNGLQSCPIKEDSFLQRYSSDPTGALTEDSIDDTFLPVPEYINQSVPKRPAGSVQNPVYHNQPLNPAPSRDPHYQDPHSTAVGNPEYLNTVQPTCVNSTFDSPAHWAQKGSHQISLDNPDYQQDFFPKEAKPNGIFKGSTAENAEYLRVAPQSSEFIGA
T1 sequence (P08069 31-1367): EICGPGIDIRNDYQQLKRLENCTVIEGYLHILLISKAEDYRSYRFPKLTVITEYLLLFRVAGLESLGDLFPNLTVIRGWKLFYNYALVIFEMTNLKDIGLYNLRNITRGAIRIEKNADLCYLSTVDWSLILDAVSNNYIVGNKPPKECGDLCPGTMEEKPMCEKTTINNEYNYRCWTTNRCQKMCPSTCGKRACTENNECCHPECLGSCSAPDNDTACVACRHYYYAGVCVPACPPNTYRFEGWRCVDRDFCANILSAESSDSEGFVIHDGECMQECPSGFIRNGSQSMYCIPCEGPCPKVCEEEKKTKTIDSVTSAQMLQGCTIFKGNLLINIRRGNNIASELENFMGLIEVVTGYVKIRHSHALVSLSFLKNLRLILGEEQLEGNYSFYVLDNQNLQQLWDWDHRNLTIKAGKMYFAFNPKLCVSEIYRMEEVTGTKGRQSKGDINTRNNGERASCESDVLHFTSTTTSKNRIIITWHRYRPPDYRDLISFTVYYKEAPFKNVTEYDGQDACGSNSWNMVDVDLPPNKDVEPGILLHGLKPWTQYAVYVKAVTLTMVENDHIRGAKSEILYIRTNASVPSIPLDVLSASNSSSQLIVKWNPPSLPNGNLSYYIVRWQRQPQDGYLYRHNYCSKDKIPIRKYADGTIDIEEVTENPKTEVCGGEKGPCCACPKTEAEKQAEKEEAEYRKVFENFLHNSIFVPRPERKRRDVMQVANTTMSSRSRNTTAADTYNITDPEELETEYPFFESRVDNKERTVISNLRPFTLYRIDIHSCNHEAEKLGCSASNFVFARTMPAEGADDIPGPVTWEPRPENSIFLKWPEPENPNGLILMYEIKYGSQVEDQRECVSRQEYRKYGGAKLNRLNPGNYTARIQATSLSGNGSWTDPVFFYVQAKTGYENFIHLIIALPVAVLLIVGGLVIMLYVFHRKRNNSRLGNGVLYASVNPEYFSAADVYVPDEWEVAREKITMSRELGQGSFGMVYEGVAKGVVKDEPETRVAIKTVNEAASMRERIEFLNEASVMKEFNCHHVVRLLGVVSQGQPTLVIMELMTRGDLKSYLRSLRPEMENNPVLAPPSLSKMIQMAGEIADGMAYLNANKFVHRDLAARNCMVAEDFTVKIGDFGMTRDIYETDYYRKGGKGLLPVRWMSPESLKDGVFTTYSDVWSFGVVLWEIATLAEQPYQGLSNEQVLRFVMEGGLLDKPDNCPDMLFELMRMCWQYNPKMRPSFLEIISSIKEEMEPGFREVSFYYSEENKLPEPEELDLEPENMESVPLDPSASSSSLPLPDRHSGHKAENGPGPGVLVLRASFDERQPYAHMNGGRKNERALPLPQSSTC

| IC50 (IGF-1R; [1]) | IC50 (human EGF receptor; [2]) | SMILES | IC50 (IGF-1R) | IC50 (human EGF receptor) |
| --- | --- | --- | --- | --- |
| > 100 µM | > 100 µM | CC(C)S(=O)(=O)c1csc(NC(=O)Nc2ccc(C(C)(C)C)cc2)c1Cl [Example Z1, N-[3-Chloro-4-(isopropylsulfonyl)thien-2-yl]-N'-(4-t-butylphenyl)urea] | – | – |
| – | – | O=C(Nc1ccc(SC(F)(F)F)cc1)Nc1ccc(Oc2ccc(Cl)cc2Cl)nc1 [Example Z3] | 16.5 µM | 69.5 µM |
| > 100 µM | – | CC(C)S(=O)(=O)c1csc(NC(=O)Nc2cc(C(F)(F)F)cc(C(F)(F)F)c2)c1Cl [Example Z2, N-[3-Chloro-4-(isopropylsulfonyl)thien-2-yl]-N'-(3,5-di-trifluoromethylphenyl)urea] | – | – |
| > 100 µM | > 100 µM | N#Cc1ccc(NC(=S)Nc2ccc(S(=O)(=O)N3CCCCC3)cc2)cc1 [Example Z4, N-(4-Cyanophenyl)-N'-[4-[(piperid-1-yl)sulfonyl]phenyl]thiourea] | – | – |
